In patent US20260337229A1 (Seattle Children's Hospital (d/b/a Seattle Children's …, priority 2022, published 2026):
Where two headings read alike, the source gives them in different places. Starred links: 1 amine or outer side, 2 acyl side, 3 side chain; linkers in the order of their positions; H or OH if unused. Positions of bridges follow the written chain, without caps; N, C: chain ends. Non-standard residues stand in square brackets, D forms with d. Residues, ends and D or L forms follow the SMILES beside them. Groups on a side chain read outwards from the residue. *: point of attachment. PEG8 = NCCOCCOCCOCCOCCOCCOCCOCCOCCC(=O)O; Palmitoyl = CCCCCCCCCCCCCCCC(=O)*; hCys = N[C@@H](CCS)C(=O)O; X1 = O=C(CC[*:2])[*:1]

Tests used:
human V1a receptor = target: T1, human V1a receptor (Homo sapiens, UniProt P37288); assay: Cytosolic Ca2+ mobilization agonist assay at human V1a receptor; format: cell-based; conditions: stably transfected CHO cells; read-out: hV1aR, EC50
T1 construct: expressed in transfected cells; host or cells: CHO
T1 sequence (P37288 whole entry): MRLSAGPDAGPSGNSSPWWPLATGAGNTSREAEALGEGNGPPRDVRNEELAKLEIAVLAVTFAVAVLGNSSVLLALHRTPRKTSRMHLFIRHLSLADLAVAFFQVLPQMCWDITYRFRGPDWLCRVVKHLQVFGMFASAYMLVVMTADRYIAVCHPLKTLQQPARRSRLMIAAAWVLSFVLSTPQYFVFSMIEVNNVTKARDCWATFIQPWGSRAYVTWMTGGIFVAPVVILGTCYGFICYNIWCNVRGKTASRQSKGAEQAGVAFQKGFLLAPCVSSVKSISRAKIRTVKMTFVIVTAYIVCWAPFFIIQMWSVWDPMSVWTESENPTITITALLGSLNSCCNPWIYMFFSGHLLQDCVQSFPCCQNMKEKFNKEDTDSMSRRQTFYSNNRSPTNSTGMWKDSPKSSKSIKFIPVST
Experimental: The cells were suspended in DMEM buffer (Invitrogen, Carlsbad, CA) complemented with 0.1% FCSd, then distributed in microplates at a density of 4.5×10^4 cells/well. The fluorescent probe (Fluo4 Direct, Invitrogen, Carlsbad, CA) mixed with probenicid in HBSS buffer (Invitrogen, Carlsbad, CA) complemented with 20 mM HEPES (Invitrogen, Carlsbad, CA) (pH 7.4) was then added into each well and equilibrated with the cells for 60 min at 37° C. then 15 min at 22° C. The assay plates were positioned in a microplate reader (CellLux, PerkinElmer) followed by the addition of the test compound ASK2131, reference agonist or HBSS buffer (basal control), and the measurements of changes in fluorescence intensity which varies proportionally to the free cytosolic Ca^2+ ion concentration. For stimulated control measurements, AVP at 1 μM was added in separate assay wells. The results were expressed as a percent of the control response to 1 μM AVP. The standard reference agonist was AVP, which was tested in each experiment at several concentrations to generate a concentration-response curve from which its EC50 value was calculated.

[1] = Blood parameters after 22-day treatment of DIO rats; format: in vivo, male Sprague Dawley rats
Text: (§1) Male Sprague Dawley rats were fed 60% HF diet (D12492; Research Diets, Inc; New Brunswick, NJ; 5.21 kcal/g) for 16 weeks prior to the start of the study. Rats were then singly house in BioDAQ cages (Research Diets, Inc.; New Brunswick, NJ) and allowed to acclimate to their new environment for 10 days. Baseline measures of body weight, food intake and water intake were taken for one week to balance the groups and create feeding pairs. Each group (n=6 animals/group) averaged 714.47±81.6 g at baseline (Table 3).
(§2) Effects of ASK2131 were compared to a vehicle-treated group, OXT-treated group, as well as a pair-fed control group. Three days of baseline measures were taken before subcutaneous treatment administration began on day 4 of the study. Assessments were made to body weight, food intake and water intake. ASK2131 was administered at 50 nmol/kg throughout the entire study period. […] OXT-treated animals were started at 50 nmol/kg dose for two days, followed by 150 nmol/kg, then 300 nmol/kg, until ending at 600 nmol/kg for the remainder of the study.
Cardiac puncture was used to collect blood for analysis 2 h post final injection. Commercially available enzyme-linked immunosorbent assays (ELISA) were used for quantitative assessment of leptin (cat. #EZRL-83K; MilliporeSigma, Burlington, MA, USA), insulin (cat. #EZRMI-13K; MilliporeSigma, Burlington, MA, USA), and adiponectin (cat. #EZRAPD-62K MilliporeSigma, Burlington, MA, USA). Serum samples were diluted 1:500 for the adiponectin ELISA using the sample diluent provided with the kit. All ELISAs were completed following the manufacturers recommendations. Levels of glucose, cholesterol (total, HDL, and calculated LDL), triglycerides, ALT, and AST were determined in the serum on a Modular P chemistry analyzer (Roche Diagnostics, Risch-Rotkreuz, Switzerland) by the University of Washington Nutrition and Obesity Research Center's Analytic Core (Seattle, WA, USA).

[2] = Pharmacokinetics, iv, rat; format: in vivo
Experimental: Whole blood samples were immediately centrifuged at 4° C.; separated plasma (~100 μL) was pipetted into micro centrifuge tubes, flash frozen on dry ice, and stored at −80° C. Quantitative analysis plasma samples were performed by Alturas Analytics (Moscow, ID, USA) via peptide extraction from acidified plasma with acetonitrile followed by LC-MS/MS analysis.

[3] = 22-day long-term study in DIO rats (body weight, food and water intake); format: in vivo, male Sprague Dawley rats; conditions: in words
Text: For studies utilizing a DIO rat model, male Sprague Dawley rats (CD-IGS rats, strain 001; approximately 4 weeks of age; 51-75 g) purchased from Charles River Laboratories (Wilmington, MA, USA). These rats were fed a diet of 60% calories from fat (Formula: D12492; Research Diets, Inc., New Brunswick, NJ, USA; 5.21 kcal/g) for 4.5 to 6 months prior to the start of the study to induce obesity. For studies utilizing lean rats, male Sprague Dawley rats (CD-IGS rats, strain 001; 226-250 g) purchased from Charles River Laboratories (Wilmington, MA, USA). All rats had ad libitum access to food and water and were kept on a 12 h light/12 h dark cycle. Animals were individually housed in a temperature (22±1° C.) and humidity (57±4%) controlled room. All body weight measurements were taken just prior to the start of the dark cycle.
as §1, §2

human V2 receptor = target: T2, human V2 receptor (Homo sapiens, UniProt P30518); assay: cAMP production (HTRF) agonist assay at human V2 receptor; format: cell-based; conditions: stably transfected CHO cells, read-out: hV2R, EC50
T2 construct: expressed in transfected cells; host or cells: CHO
T2 sequence (P30518 whole entry): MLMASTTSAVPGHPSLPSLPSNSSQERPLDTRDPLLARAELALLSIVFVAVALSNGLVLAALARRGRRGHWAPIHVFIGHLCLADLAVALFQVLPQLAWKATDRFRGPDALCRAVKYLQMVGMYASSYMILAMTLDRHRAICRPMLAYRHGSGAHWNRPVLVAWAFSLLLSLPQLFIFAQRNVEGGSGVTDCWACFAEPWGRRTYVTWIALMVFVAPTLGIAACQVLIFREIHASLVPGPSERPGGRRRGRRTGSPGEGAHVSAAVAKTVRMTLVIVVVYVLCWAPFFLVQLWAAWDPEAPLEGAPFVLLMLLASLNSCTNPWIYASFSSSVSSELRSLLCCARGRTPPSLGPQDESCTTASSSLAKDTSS
Experimental: In Vitro Functional Assay measuring V2R Evaluation of the agonist activity of ASK2131 at the human V2 receptor expressed in stably transfected CHO cells was conducted by measuring its effects on cAMP production using the HTRF detection method. The cells were suspended in HBSS buffer (Invitrogen, Carsbad, CA) complemented with 20 mM HEPES (pH 7.4), 0.010% BSA and 500 μM IBMX, then distributed in microplates at a density of […] cells/well and incubated for 30 min at room temperature in the absence (control) or presence of the test compound or the reference agonist.
For stimulated control measurement, separate assay wells contained 1 nM AVP. Following incubation, the cells were lysed, and the fluorescence acceptor (D2-labeled cAMP) and fluorescence donor (anti-cAMP antibody labeled with europium cryptate) were added. After 60 min at room temperature, the fluorescence transfer was measured at γ ex=337 nm and γ em=620 and 665 nm using a microplate reader (Envision, Perkin Elmer). The cAMP concentration was determined by dividing the signal measured at 665 nm by that measured at 620 nm (ratio).
The results were expressed as a percent of the control response to 1 nM AVP. The standard reference agonist was AVP, which was tested in each experiment at several concentrations to generate a concentration-response curve from which its EC50 value was calculated.

hOXTR = target: T3, hOXTR (Homo sapiens, UniProt P30559); assay: Ca2+ flux fluorometric imaging plate reader assay at OXTR; format: cell-based
T3 construct: expressed in transfected cells; host or cells: CHO (hOTR NFAT bLac)
T3 sequence (P30559 1-389): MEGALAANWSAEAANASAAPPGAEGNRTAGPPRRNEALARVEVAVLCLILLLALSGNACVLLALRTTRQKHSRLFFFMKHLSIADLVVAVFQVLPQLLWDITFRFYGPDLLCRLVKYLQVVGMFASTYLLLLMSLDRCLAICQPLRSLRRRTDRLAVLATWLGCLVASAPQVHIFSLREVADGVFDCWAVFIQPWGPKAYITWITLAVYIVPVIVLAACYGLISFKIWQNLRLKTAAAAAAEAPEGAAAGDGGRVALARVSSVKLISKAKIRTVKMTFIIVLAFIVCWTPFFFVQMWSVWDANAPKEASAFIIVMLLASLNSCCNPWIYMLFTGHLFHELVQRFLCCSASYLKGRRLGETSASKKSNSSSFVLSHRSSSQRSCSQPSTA
Experimental: In a typical experimental protocol, stably transfected Chinese hamster ovary (CHO) hOTR NFAT bLac cells were plated at a density of 10,000 cells/well in a 384-well plate in growth medium (Dulbecco's modified Eagle's medium+Glutamax (Thermo Fisher Scientific, Waltham, MA), 10% dialyzed fetal bovine serum). The next day calcium-sensitive, fluo-4 dye (Invitrogen, Carlsbad, CA) and probenecid (Invitrogen; 2.5 mM) was dissolved in 20 ml warm dye loading buffer (Hanks' balanced salt solution with calcium and magnesium, 20 mM Hepes, pH 7.4) and added to each well. Plates were incubated for 60-120 minutes in a 37° C. cell incubator to allow cells to uptake the dye. […] After dye-loading, the cell plates were placed on the fluorometric imaging plate reader. A total of […] of test compound was added to the […] of dye on the cells, and intracellular Ca^2+ was monitored for 90 seconds. Intracellular Ca^2+ concentrations were calculated as the maximum increase over basal levels. Responses were normalized to control responses. Data were analyzed by curve fitting.

[4] = serum 2 h post final injection, 22 days sc, mean ± SEM, OXT n=4

## CCCCCCCCCCCCCCCC(=O)NCCOCCOCCOCCOCCOCCOCCOCCOCCC(=O)NCCCC[C@H](NC(=O)CNC(=O)[C@@H]1CCSCCC(=O)N[C@@H](Cc2ccc(O)cc2)C(=O)N[C@@H]([C@@H](C)CC)C(=O)N[C@@H](CCC(N)=O)C(=O)N[C@@H](CC(N)=O)C(=O)N1)C(=O)NCC(N)=O [ASK2131] (YIQN[hCys]GK([PEG8-Palmitoyl])G-NH2; linker N-5 via X1)
Human V1a receptor
  EC50: > 1000 nM
[1]; 22 days, in words
  glucose, triglyceride, ALT, and AST levels: No significant differences
[1]; [4]
  ALT: 26 ± 2 U/L
  AST: 73 ± 8 U/L
[2]
  T1/2: 2.30 h
  Tmax: 4.00 h
[2]; 4 hours post-dose
  free Cmax: 0.5 nM
[2]; plasma
  half-life: 2.3 h
[2]; plasma, read-out: CLplasma
  clearance: 1.2 mL/min/kg
[2]; plasma, read-out: Tmax
  Tmax: 4 h
[2]; plasma, read-out: Vd, steady-state volume of distribution
  Vd: 0.8 L/kg
[2]; total plasma concentration, 4 hours post-dose
  Cmax at 4 h: 276 nM
[3]
  adverse effects caused by the activation of V2R: No adverse effects caused by the activation of V2R were observed
Human V2 receptor
  EC50: 0.36 nM
hOXTR
  EC50: 1.1 nM
hOXTR; ratio of EC50 values
  Ratio OXTR/V2R/: 3.06
